Patent publication US20110294155A1, “MODULATION OF AN ION CHANNEL OR RECEPTOR” (Howard Florey Institute, priority 2008, published 2011)
Entries after “also recorded” stand apart in the source; their conditions may differ.

Biological target: skeletal muscle Nav1.4 sodium channels (Homo sapiens, UniProt P35499)
Test: Dynamic clamp whole cell assay of action potential firing at HEK cells expressing Nav1.4 sodium channels
Assay type: cell-based
Protocol: Twenty-four hours prior to experimentation, cells were dissociated using Versene (EDTA) and plated at 10-12% confluency onto coverslips. The following day the coverslips were placed into the recording chamber and held at 22-25° C. for the duration of the experiments.
Borosilicate glass pipettes (WPI) were used for the whole cell assay. These pipettes were filled with an intracellular solution containing (mM): 10 NaF, 110 CsF, 20 TEA.Cl, 2 ethylene glycol tetraacetic acid and 10 HEPES, with pH adjusted to 7.4 using CsOH and osmolarity adjusted to 310 mosmol/L with sucrose.
The bath solution contained in (mM): 141 NaCl, 4 KCl, 1.0 MgCl2, 1.8 CaCl2, 10 HEPES buffer, and 4 tetraethylammonium (TEA).Cl, with pH adjusted to 7.4 with NaOH and osmolarity adjusted to 310 mosmol/L with sucrose. Bath temperature was controlled using a Warner Instruments (Hamden, Conn.) controller (TC-344B) with inline solution and bath heating.
Electrophysiological recordings were made 10 minutes after establishing whole cell recording. Recordings were made on an EPC-9 patch clamp amplifier (Heka Instruments, Lambrecht, Germany) filtered at 14.4 kHz with >80% series resistance compensation and sampled at 50 kHz. The current monitor output from the EPC-9 was fed into the analogue input channel of a data acquisition card.
The model runs in polling mode using the ode5 fixed time step solver with a step size of 50 μS.
The dynamic clamp system was configured to account for leak conductance, and to also simulate the function of potassium channels, which were not present in the HEK cell.
Following attainment of a whole cell clamp in the HEK cell, a period of 10 minutes was allowed for diffusion of the pipette solution into the intracellular volume of the cell. During this period cells were held at −85 mV.
Control was transferred to the Simulink system and a range of current injections were trialled to achieve a steady state action potential firing of 50-100 Hz (FIG. 8). This firing was stable and continued as long as a stimulating current injection was maintained. […]

Sequence of skeletal muscle Nav1.4 sodium channels (P35499 whole entry): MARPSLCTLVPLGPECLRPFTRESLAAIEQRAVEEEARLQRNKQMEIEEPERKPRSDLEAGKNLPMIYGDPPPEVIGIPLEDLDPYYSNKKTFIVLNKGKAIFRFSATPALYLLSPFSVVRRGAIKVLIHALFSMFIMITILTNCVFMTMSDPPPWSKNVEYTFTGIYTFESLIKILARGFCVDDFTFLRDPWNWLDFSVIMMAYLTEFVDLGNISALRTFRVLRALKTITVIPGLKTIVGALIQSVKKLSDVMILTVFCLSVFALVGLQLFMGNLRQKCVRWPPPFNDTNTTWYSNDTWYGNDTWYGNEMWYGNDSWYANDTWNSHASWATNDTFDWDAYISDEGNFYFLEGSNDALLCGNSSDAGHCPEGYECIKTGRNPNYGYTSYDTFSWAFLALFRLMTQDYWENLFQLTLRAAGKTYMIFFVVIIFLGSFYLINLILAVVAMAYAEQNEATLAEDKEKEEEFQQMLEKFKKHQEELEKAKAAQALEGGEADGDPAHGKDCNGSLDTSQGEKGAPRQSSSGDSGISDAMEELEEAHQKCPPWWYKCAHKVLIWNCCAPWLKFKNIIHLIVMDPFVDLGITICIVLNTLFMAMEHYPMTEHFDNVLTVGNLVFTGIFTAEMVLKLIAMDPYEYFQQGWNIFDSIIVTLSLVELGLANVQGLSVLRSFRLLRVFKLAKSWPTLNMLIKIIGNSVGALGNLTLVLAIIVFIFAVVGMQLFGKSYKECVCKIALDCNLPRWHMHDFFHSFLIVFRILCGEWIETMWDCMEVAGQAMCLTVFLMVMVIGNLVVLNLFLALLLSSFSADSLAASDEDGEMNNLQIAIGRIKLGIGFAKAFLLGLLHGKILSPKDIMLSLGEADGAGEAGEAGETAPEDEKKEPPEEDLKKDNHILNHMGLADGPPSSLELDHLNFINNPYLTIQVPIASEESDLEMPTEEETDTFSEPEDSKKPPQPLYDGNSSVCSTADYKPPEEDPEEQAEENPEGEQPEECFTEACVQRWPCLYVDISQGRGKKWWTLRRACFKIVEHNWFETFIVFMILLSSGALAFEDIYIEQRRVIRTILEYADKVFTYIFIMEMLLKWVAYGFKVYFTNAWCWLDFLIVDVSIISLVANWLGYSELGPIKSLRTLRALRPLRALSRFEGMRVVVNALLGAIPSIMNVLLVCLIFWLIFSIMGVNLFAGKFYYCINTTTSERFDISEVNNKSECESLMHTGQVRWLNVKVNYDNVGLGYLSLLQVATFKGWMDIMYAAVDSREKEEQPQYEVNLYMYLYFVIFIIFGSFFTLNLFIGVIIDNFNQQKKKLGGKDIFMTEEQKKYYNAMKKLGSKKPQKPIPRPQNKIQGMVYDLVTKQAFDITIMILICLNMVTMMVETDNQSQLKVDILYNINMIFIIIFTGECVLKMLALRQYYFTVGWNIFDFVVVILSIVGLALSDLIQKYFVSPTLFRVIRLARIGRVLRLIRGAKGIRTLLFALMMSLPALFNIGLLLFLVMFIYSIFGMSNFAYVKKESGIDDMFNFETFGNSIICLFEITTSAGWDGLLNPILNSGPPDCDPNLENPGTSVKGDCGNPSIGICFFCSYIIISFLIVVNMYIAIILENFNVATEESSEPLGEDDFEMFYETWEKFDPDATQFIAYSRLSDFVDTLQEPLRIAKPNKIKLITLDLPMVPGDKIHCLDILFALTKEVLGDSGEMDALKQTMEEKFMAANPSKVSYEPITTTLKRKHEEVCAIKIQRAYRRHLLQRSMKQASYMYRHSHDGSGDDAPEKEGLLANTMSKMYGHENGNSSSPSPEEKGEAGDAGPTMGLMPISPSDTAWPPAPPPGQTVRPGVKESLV

- number of action potentials elicited by a stimulating current step (continued presence of 50 μM, HEK cells expressing Nav1.4, no further firing would occur): 2-3
SMILES: NC(=O)N1c2ccccc2C=Cc2ccccc21 [carbamazepine]
- action potential firing rate (50 μM in bath solution perfused onto HEK cells expressing Nav1.4, steady state firing of 50-100 Hz before compound): decreased the action potential firing rate; also recorded: decrease in action potential firing rate
